Test results from PubChem BioAssay (NCI).
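Method: 48-hour compound exposure of cells in 96-well plates, five concentrations, linear interpolation of endpoints. GI50 is the concentration that inhibits growth by half. Definition used: TGI = concentration required for complete inhibition of growth.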

Tests used:
Test in all cases: NCI tumour cell line growth inhibition, 48 h
786-0 renal = system: 786-0 renal
A549 NSCLC = system: A549 NSCLC
ACHN renal = system: ACHN renal
CCRF-CEM leukemia = system: CCRF-CEM leukemia
COLO 205 colon = system: COLO 205 colon
DLD-1 colon = system: DLD-1 colon
DMS 114 small cell lung = system: DMS 114 small cell lung
EKVX NSCLC = system: EKVX NSCLC
HCC-2998 colon = system: HCC-2998 colon
HCT-15 colon = system: HCT-15 colon
HL-60(TB) leukemia = system: HL-60(TB) leukemia
HOP-18 NSCLC = system: HOP-18 NSCLC
HOP-92 NSCLC = system: HOP-92 NSCLC
IGROV1 ovarian = system: IGROV1 ovarian
K-562 leukemia = system: K-562 leukemia
KM12 colon = system: KM12 colon
M14 melanoma = system: M14 melanoma
M19-MEL melanoma = system: M19-MEL melanoma
MALME-3M melanoma = system: MALME-3M melanoma
MOLT-4 leukemia = system: MOLT-4 leukemia
NCI-H226 lung = system: NCI-H226 lung
NCI-H522 lung = system: NCI-H522 lung
OVCAR-3 ovarian = system: OVCAR-3 ovarian
OVCAR-5 ovarian = system: OVCAR-5 ovarian
OVCAR-8 ovarian = system: OVCAR-8 ovarian
RPMI-8226 leukemia = system: RPMI-8226 leukemia
RXF 393 renal = system: RXF 393 renal
RXF-631 renal = system: RXF-631 renal
SF-268 CNS = system: SF-268 CNS
SF-295 CNS = system: SF-295 CNS
SF-539 CNS = system: SF-539 CNS
SK-MEL-2 melanoma = system: SK-MEL-2 melanoma
SK-MEL-28 melanoma = system: SK-MEL-28 melanoma
SK-OV-3 ovarian = system: SK-OV-3 ovarian
SN12C renal = system: SN12C renal
SNB-19 CNS = system: SNB-19 CNS
SNB-75 CNS = system: SNB-75 CNS
SNB-78 CNS = system: SNB-78 CNS
SR leukemia = system: SR leukemia
SW-620 colon = system: SW-620 colon
TK-10 renal = system: TK-10 renal
U251 CNS = system: U251 CNS
UACC-257 melanoma = system: UACC-257 melanoma
UACC-62 melanoma = system: UACC-62 melanoma
UO-31 renal = system: UO-31 renal
XF 498 CNS = system: XF 498 CNS
A498 renal = system: A498 renal
CAKI-1 renal = system: CAKI-1 renal
DMS 273 small cell lung = system: DMS 273 small cell lung
HCT-116 colon = system: HCT-116 colon
HOP-62 NSCLC = system: HOP-62 NSCLC
HT29 colon = system: HT29 colon
KM20L2 colon = system: KM20L2 colon
LOX IMVI melanoma = system: LOX IMVI melanoma
MCF7 breast = system: MCF7 breast
NCI-H23 lung = system: NCI-H23 lung
NCI-H460 lung = system: NCI-H460 lung
NCI/ADR-RES ovarian = system: NCI/ADR-RES ovarian
OVCAR-4 ovarian = system: OVCAR-4 ovarian
P388 leukemia = system: P388 leukemia
P388/ADR leukemia = system: P388/ADR leukemia
SK-MEL-5 melanoma = system: SK-MEL-5 melanoma
SN12K1 renal = system: SN12K1 renal

Compound: CCC[CH2][Sn]1([CH2]CCC)[O]CC([CH2][Sn]([c]2ccccc2)([c]2ccccc2)[c]2ccccc2)[O]1 (configuration not stated)
- GI50 (786-0 renal): 11.8 µM
- TGI (786-0 renal): 24.5 µM
- GI50 (A549 NSCLC): 16.5 µM
- TGI (A549 NSCLC): 31.4 µM
- GI50 (ACHN renal): 17 µM
- TGI (ACHN renal): 32.5 µM
- GI50 (CCRF-CEM leukemia): 2260 nM
- TGI (CCRF-CEM leukemia): 20.8 µM
- GI50 (COLO 205 colon): 10.4 µM
- TGI (COLO 205 colon): 23 µM
- GI50 (DLD-1 colon): 5.92 µM
- TGI (DLD-1 colon): 18.4 µM
- GI50 (DMS 114 small cell lung): 3.18 µM
- TGI (DMS 114 small cell lung): 13.5 µM
- GI50 (EKVX NSCLC): 13.4 µM
- TGI (EKVX NSCLC): 26.3 µM
- GI50 (HCC-2998 colon): 10.2 µM
- TGI (HCC-2998 colon): 22.4 µM
- GI50 (HCT-15 colon): 13.2 µM
- TGI (HCT-15 colon): 26.4 µM
- GI50 (HL-60(TB) leukemia): 2470 nM
- TGI (HL-60(TB) leukemia): 8.38 µM
- GI50 (HOP-18 NSCLC): 12.7 µM
- TGI (HOP-18 NSCLC): 25.2 µM
- GI50 (HOP-92 NSCLC): 11.9 µM
- TGI (HOP-92 NSCLC): 25.7 µM
- GI50 (IGROV1 ovarian): 15.2 µM
- TGI (IGROV1 ovarian): 29.2 µM
- GI50 (K-562 leukemia): 2980 nM
- TGI (K-562 leukemia): 13.6 µM
- GI50 (KM12 colon): 12.2 µM
- TGI (KM12 colon): 25.3 µM
- GI50 (M14 melanoma): 15.9 µM
- TGI (M14 melanoma): 31.4 µM
- GI50 (M19-MEL melanoma): 8.82 µM
- TGI (M19-MEL melanoma): 21.2 µM
- GI50 (MALME-3M melanoma): 13.6 µM
- TGI (MALME-3M melanoma): 26.4 µM
- GI50 (MOLT-4 leukemia): 3.22 µM
- TGI (MOLT-4 leukemia): 28.5 µM
- GI50 (NCI-H226 lung): 20.7 µM
- TGI (NCI-H226 lung): 38.8 µM
- GI50 (NCI-H522 lung): 1400 nM
- TGI (NCI-H522 lung): 3.37 µM
- GI50 (OVCAR-3 ovarian): 14.9 µM
- TGI (OVCAR-3 ovarian): 29.9 µM
- GI50 (OVCAR-5 ovarian): 17 µM
- TGI (OVCAR-5 ovarian): 31 µM
- GI50 (OVCAR-8 ovarian): 15.2 µM
- TGI (OVCAR-8 ovarian): 34 µM
- GI50 (RPMI-8226 leukemia): 2850 nM
- TGI (RPMI-8226 leukemia): 18.7 µM
- GI50 (RXF 393 renal): 3.21 µM
- TGI (RXF 393 renal): 15.4 µM
- GI50 (RXF-631 renal): 10.7 µM
- TGI (RXF-631 renal): 30.5 µM
- GI50 (SF-268 CNS): 6.79 µM
- TGI (SF-268 CNS): 19 µM
- GI50 (SF-295 CNS): 16.2 µM
- TGI (SF-295 CNS): 30.4 µM
- GI50 (SF-539 CNS): 15 µM
- TGI (SF-539 CNS): 28.3 µM
- GI50 (SK-MEL-2 melanoma): 10.9 µM
- TGI (SK-MEL-2 melanoma): 23.4 µM
- GI50 (SK-MEL-28 melanoma): 5.95 µM
- TGI (SK-MEL-28 melanoma): 20.2 µM
- GI50 (SK-OV-3 ovarian): 19.1 µM
- TGI (SK-OV-3 ovarian): 33.2 µM
- GI50 (SN12C renal): 14 µM
- TGI (SN12C renal): 27.7 µM
- GI50 (SNB-19 CNS): 15.1 µM
- TGI (SNB-19 CNS): 28.6 µM
- GI50 (SNB-75 CNS): 6.49 µM
- TGI (SNB-75 CNS): 20.2 µM
- GI50 (SNB-78 CNS): 10.2 µM
- TGI (SNB-78 CNS): 26.4 µM
- GI50 (SR leukemia): 3.78 µM
- TGI (SR leukemia): > 100 µM
- GI50 (SW-620 colon): 3.9 µM
- TGI (SW-620 colon): 15.7 µM
- GI50 (TK-10 renal): 13.8 µM
- TGI (TK-10 renal): 27 µM
- GI50 (U251 CNS): 6.5 µM
- TGI (U251 CNS): 19.9 µM
- GI50 (UACC-257 melanoma): 12.6 µM
- TGI (UACC-257 melanoma): 26.6 µM
- GI50 (UACC-62 melanoma): 10.6 µM
- TGI (UACC-62 melanoma): 22.6 µM
- GI50 (UO-31 renal): 15.3 µM
- TGI (UO-31 renal): 28.7 µM
- GI50 (XF 498 CNS): 15.3 µM
- TGI (XF 498 CNS): 28.6 µM

Compound: CC1=NN(C(=O)c2ccccc2)C(=O)C1N=Nc1ccccc1C(=O)O (configuration not stated)
- TGI (A498 renal): > 100 µM
- TGI (A549 NSCLC): > 100 µM
- TGI (CAKI-1 renal): > 100 µM
- TGI (CCRF-CEM leukemia): > 50.7 µM
- TGI (COLO 205 colon): > 100 µM
- TGI (DLD-1 colon): > 100 µM
- TGI (DMS 114 small cell lung): > 100 µM
- TGI (DMS 273 small cell lung): > 100 µM
- TGI (EKVX NSCLC): > 100 µM
- TGI (HCC-2998 colon): > 70.6 µM
- TGI (HCT-116 colon): > 100 µM
- TGI (HCT-15 colon): > 100 µM
- TGI (HL-60(TB) leukemia): > 33.2 µM
- TGI (HOP-18 NSCLC): > 100 µM
- TGI (HOP-62 NSCLC): > 100 µM
- TGI (HOP-92 NSCLC): > 100 µM
- TGI (HT29 colon): > 100 µM
- TGI (IGROV1 ovarian): > 78.1 µM
- TGI (K-562 leukemia): > 29.4 µM
- TGI (KM12 colon): > 100 µM
- TGI (KM20L2 colon): > 100 µM
- TGI (LOX IMVI melanoma): > 100 µM
- TGI (M19-MEL melanoma): > 100 µM
- TGI (MALME-3M melanoma): > 100 µM
- TGI (MCF7 breast): 19 µM
- TGI (MOLT-4 leukemia): > 100 µM
- TGI (NCI-H226 lung): > 73.7 µM
- TGI (NCI-H23 lung): > 40.6 µM
- TGI (NCI-H460 lung): > 100 µM
- TGI (NCI-H522 lung): 38 µM
- TGI (NCI/ADR-RES ovarian): > 100 µM
- TGI (OVCAR-3 ovarian): > 27.5 µM
- TGI (OVCAR-4 ovarian): > 55 µM
- TGI (OVCAR-5 ovarian): > 100 µM
- TGI (OVCAR-8 ovarian): > 100 µM
- TGI (P388 leukemia): > 46.3 µM
- TGI (P388/ADR leukemia): > 44.7 µM
- TGI (RPMI-8226 leukemia): > 100 µM
- TGI (RXF 393 renal): > 100 µM
- TGI (SF-268 CNS): > 100 µM
- TGI (SF-295 CNS): > 100 µM
- TGI (SF-539 CNS): > 100 µM
- TGI (SK-MEL-2 melanoma): > 100 µM
- TGI (SK-MEL-28 melanoma): > 100 µM
- TGI (SK-MEL-5 melanoma): > 100 µM
- TGI (SK-OV-3 ovarian): > 100 µM
- TGI (SN12C renal): > 100 µM
- TGI (SN12K1 renal): > 100 µM
- TGI (SNB-19 CNS): > 100 µM
- TGI (SNB-75 CNS): > 20.7 µM
- TGI (SW-620 colon): > 100 µM
- TGI (U251 CNS): > 100 µM
- TGI (UACC-62 melanoma): 22.9 µM
- TGI (UO-31 renal): 21.8 µM
- TGI (XF 498 CNS): 69.9 µM
